Tests used:
[1] = Sensory evaluation of sweetness intensity in sucralose solution (Experimental Examples 23-24); settings: for sweetness intensity: average score; for concentration at which a sweetness-enhancing effect was confirmed: sucralose solution, added alone, 3.0 points or more
Procedure: A negative control sucralose solution (0.0140 wt % sucralose solution) was prepared by dissolving sucralose in filtered water.
(§1) A sensory evaluation of sweetness intensity was performed for each sample by a panel of four experts according to the following evaluation criteria.
Sweetness intensity was evaluated by 0.0 to 10.0 point based on the following reference samples (negative control (hereinafter referred to as NC) (0.0 point); reference 1 (hereinafter referred to as R1) (3.0 points), reference 2 (hereinafter referred to as R2) (5.0 points); reference 3 (hereinafter referred to as R3) (10.0 points)). The average score (rounded to two decimal places) of each expert panelist was calculated. An average score of 3.0 points or more was considered to be functional. • NC (0.0 point): 0.0140 wt % sucralose solution (solvent: filtered water) • R1 (3.0 points): 0.0164 wt % sucralose solution (solvent: filtered water) • R2 (5.0 points): 0.0180 wt % sucralose solution (solvent: filtered water) • R3 (10.0 points): 0.0220 wt % sucralose solution (solvent: filtered water)
A sensory evaluation of sweetness intensity was performed for each sample by a panel of four experts according to the same evaluation criteria as in Experimental Example 23.

[2] = Sensory evaluation of sweetness intensity in RebA solution, four reference samples (Experimental Examples 17-19); settings: for concentration at which a sweetness-enhancing effect was confirmed: added alone, 3.0 points or more
Procedure: A negative control RebA solution (0.073 wt % RebA solution) was prepared by dissolving RebA in filtered water.
as §1
Sweetness intensity was evaluated by 0.0 to 10.0 points based on the following reference samples (negative control (hereinafter referred to as NC) (0.0 point); reference 1 (hereinafter referred to as R1) (3.2 points), reference 2 (hereinafter referred to as R2) (5.0 points); reference 3 (hereinafter referred to as R3) (10.0 points)). The average score (rounded to two decimal places) of each expert panelist was calculated. An average score of 3.0 points or more was considered to be functional. • NC (0.0 point): 0.073 wt % RebA solution (solvent: filtered water) • R1 (3.2 points): 0.073 wt % RebA solution (solvent: filtered water)+decanoic acid (10 ppb) • R2 (5.0 points): 0.077 wt % RebA solution (solvent: filtered water) • R3 (10.0 points): 0.080 wt % RebA solution (solvent: filtered water)
A sensory evaluation of sweetness intensity was performed for each sample by a panel of four experts according to the same evaluation criteria as in Experimental Example 17.

[3] = Sensory evaluation of sweetness intensity in RebM solution (Experimental Examples 20-21)
Procedure: A negative control RebM solution (0.063 wt % RebM solution) was prepared by dissolving RebM in filtered water.
as §1
Sweetness intensity was evaluated by 0.0 to 10.0 points based on the following reference samples (negative control (hereinafter referred to as NC) (0.0 point); reference 1 (hereinafter referred to as R1) (3.0 points), reference 2 (hereinafter referred to as R2) (5.0 points); reference 3 (hereinafter referred to as R3) (10.0 points)). The average score (rounded to two decimal places) of each expert panelist was calculated. An average score of 3.0 points or more was considered to be functional. • NC (0.0 point): 0.063 wt % RebM solution (solvent: filtered water) • R1 (3.0 points): 0.063 wt % RebM solution (solvent: filtered water)+dodecanoic acid (1 ppb) • R2 (5.0 points): 0.066 wt % RebM solution (solvent: filtered water) • R3 (10.0 points): 0.069 wt % RebM solution (solvent: filtered water)
A sensory evaluation of sweetness intensity was performed for each sample by a panel of four experts according to the same evaluation criteria as in Experimental Example 20.

[4] = Sensory evaluation of sweetness intensity in aspartame solution, four reference samples (Experimental Example 22)
Procedure: A negative control aspartame solution (0.063 wt % aspartame solution) was prepared by dissolving aspartame in filtered water.
as §1
Sweetness intensity was evaluated by 0.0 to 10.0 point based on the following reference samples (negative control (hereinafter referred to as NC) (0.0 point); reference 1 (hereinafter referred to as R1) (3.2 points), reference 2 (hereinafter referred to as R2) (5.0 points); reference 3 (hereinafter referred to as R3) (10.0 points)). The average score (rounded to two decimal places) of each expert panelist was calculated. An average score of 3.0 points or more was considered to be functional. • NC (0.0 point): 0.063 wt % aspartame solution (solvent: filtered water) • R1 (3.2 points): 0.063 wt % aspartame solution (solvent: filtered water)+decanoic acid (10 ppb) • R2 (5.0 points): 0.066 wt % aspartame solution (solvent: filtered water) • R3 (10.0 points): 0.069 wt % aspartame solution (solvent: filtered water)

[5] = added alone at 0.001 ppb to 0.0140 wt % sucralose solution
[6] = added alone at 0.01 ppb to 0.0140 wt % sucralose solution
[7] = added alone at 0.1 ppb to 0.0140 wt % sucralose solution
[8] = added alone at 1 ppb to 0.0140 wt % sucralose solution
[9] = added alone at 10 ppb to 0.0140 wt % sucralose solution
[10] = added alone at 100 ppb to 0.0140 wt % sucralose solution
[11] = added alone at 1000 ppb to 0.0140 wt % sucralose solution
[12] = added alone at 10000 ppb to 0.0140 wt % sucralose solution

SMILES: CCCCCCCCCCC(=O)O [undecanoic acid]
- sweetness intensity [1, 5]: 0.9 points
- sweetness intensity [1, 6]: 1.3 points
- sweetness intensity [1, 7]: 1.7 points
- sweetness intensity [1, 8]: 2.1 points
- sweetness intensity [1, 9]: 2.8 points
- sweetness intensity [1, 10]: 3.1 points
- sweetness intensity [1, 11]: 3.4 points
- sweetness intensity [1, 12]: 3.2 points
- sweetness intensity ([2]; acid added alone at 0.001 ppb): 0.3 points
- sweetness intensity ([2]; acid added alone at 0.01 ppb): 1.9 points
- sweetness intensity ([2]; acid added alone at 0.1 ppb): 3.5 points
- sweetness intensity ([2]; acid added alone at 1 ppb): 4.5 points
- sweetness intensity ([2]; acid added alone at 10 ppb): 5.4 points
- sweetness intensity ([2]; acid added alone at 100 ppb): 6.0 points
- sweetness intensity ([2]; acid added alone at 1000 ppb): 6.2 points
- sweetness intensity ([2]; acid added alone at 10000 ppb): 5.7 points
- concentration at which a sweetness-enhancing effect was confirmed [2]: ≥ 0.1 ppb
- sweetness intensity ([3]; acid added alone at 0.001 ppb): 1.3 points
- sweetness intensity ([3]; acid added alone at 0.01 ppb): 2.0 points
- sweetness intensity ([3]; acid added alone at 0.1 ppb): 2.4 points
- sweetness intensity ([3]; acid added alone at 1 ppb): 2.9 points
- sweetness intensity ([3]; acid added alone at 10 ppb): 3.3 points
- sweetness intensity ([3]; acid added alone at 100 ppb): 3.9 points
- sweetness intensity ([3]; acid added alone at 1000 ppb): 4.4 points
- sweetness intensity ([3]; acid added alone at 10000 ppb): 4.1 points
- sweetness intensity ([4]; acid added alone at 0.001 ppb): 1.3 points
- sweetness intensity ([4]; acid added alone at 0.01 ppb): 2.1 points
- sweetness intensity ([4]; acid added alone at 0.1 ppb): 2.8 points
- sweetness intensity ([4]; acid added alone at 1 ppb): 3.2 points
- sweetness intensity ([4]; acid added alone at 10 ppb): 3.8 points
- sweetness intensity ([4]; acid added alone at 100 ppb): 4.1 points
- sweetness intensity ([4]; acid added alone at 1000 ppb): 4.7 points
- sweetness intensity ([4]; acid added alone at 10000 ppb): 5.5 points

SMILES: CCCCCCCCC(=O)O [nonanoic acid]
- sweetness intensity [1, 5]: 1.3 points
- sweetness intensity [1, 6]: 1.8 points
- sweetness intensity [1, 7]: 2.4 points
- sweetness intensity [1, 8]: 3.0 points
- sweetness intensity [1, 9]: 3.5 points
- sweetness intensity [1, 10]: 3.9 points
- sweetness intensity [1, 11]: 4.3 points
- sweetness intensity [1, 12]: 4.2 points
- concentration at which a sweetness-enhancing effect was confirmed [1]: ≥ 1 ppb
- sweetness intensity ([2]; acid added alone at 0.001 ppb): 0.7 points
- sweetness intensity ([2]; acid added alone at 0.01 ppb): 1.0 points
- sweetness intensity ([2]; acid added alone at 0.1 ppb): 1.8 points
- sweetness intensity ([2]; acid added alone at 1 ppb): 2.8 points
- sweetness intensity ([2]; acid added alone at 10 ppb): 3.3 points
- sweetness intensity ([2]; acid added alone at 100 ppb): 4.0 points
- sweetness intensity ([2]; acid added alone at 1000 ppb): 4.8 points
- sweetness intensity ([2]; acid added alone at 10000 ppb): 4.4 points
- concentration at which a sweetness-enhancing effect was confirmed [2]: ≥ 10 ppb
- sweetness intensity ([3]; acid added alone at 0.001 ppb): 0.9 points
- sweetness intensity ([3]; acid added alone at 0.01 ppb): 1.4 points
- sweetness intensity ([3]; acid added alone at 0.1 ppb): 2.1 points
- sweetness intensity ([3]; acid added alone at 1 ppb): 2.8 points
- sweetness intensity ([3]; acid added alone at 10 ppb): 3.3 points
- sweetness intensity ([3]; acid added alone at 100 ppb): 4.1 points
- sweetness intensity ([3]; acid added alone at 1000 ppb): 4.8 points
- sweetness intensity ([3]; acid added alone at 10000 ppb): 4.8 points
- sweetness intensity ([4]; acid added alone at 0.001 ppb): 0.8 points
- sweetness intensity ([4]; acid added alone at 0.01 ppb): 2.0 points
- sweetness intensity ([4]; acid added alone at 0.1 ppb): 2.7 points
- sweetness intensity ([4]; acid added alone at 1 ppb): 3.4 points
- sweetness intensity ([4]; acid added alone at 10 ppb): 4.5 points
- sweetness intensity ([4]; acid added alone at 100 ppb): 4.9 points
- sweetness intensity ([4]; acid added alone at 1000 ppb): 5.4 points
- sweetness intensity ([4]; acid added alone at 10000 ppb): 5.9 points

SMILES: CCCCCCCCCCCC(=O)O [dodecanoic acid]
- sweetness intensity [1, 5]: 1.0 points
- sweetness intensity [1, 6]: 1.6 points
- sweetness intensity [1, 7]: 2.0 points
- sweetness intensity [1, 8]: 2.5 points
- sweetness intensity [1, 9]: 3.0 points
- sweetness intensity [1, 10]: 3.5 points
- sweetness intensity [1, 11]: 3.9 points
- sweetness intensity [1, 12]: 3.7 points
- concentration at which a sweetness-enhancing effect was confirmed [1]: ≥ 10 ppb
- sweetness intensity ([2]; acid added alone at 0.001 ppb): 0.6 points
- sweetness intensity ([2]; acid added alone at 0.01 ppb): 1.3 points
- sweetness intensity ([2]; acid added alone at 0.1 ppb): 2.3 points
- sweetness intensity ([2]; acid added alone at 1 ppb): 4.2 points
- sweetness intensity ([2]; acid added alone at 10 ppb): 5.0 points
- sweetness intensity ([2]; acid added alone at 100 ppb): 5.7 points
- sweetness intensity ([2]; acid added alone at 1000 ppb): 6.0 points
- sweetness intensity ([2]; acid added alone at 10000 ppb): 6.0 points
- concentration at which a sweetness-enhancing effect was confirmed [2]: ≥ 1 ppb
- sweetness intensity ([3]; acid added alone at 0.001 ppb): 0.8 points
- sweetness intensity ([3]; acid added alone at 0.01 ppb): 1.7 points
- sweetness intensity ([3]; acid added alone at 0.1 ppb): 2.5 points
- sweetness intensity ([3]; acid added alone at 1 ppb): 3.0 points
- sweetness intensity ([3]; acid added alone at 10 ppb): 5.0 points
- sweetness intensity ([3]; acid added alone at 100 ppb): 4.6 points
- sweetness intensity ([3]; acid added alone at 1000 ppb): 4.7 points
- sweetness intensity ([3]; acid added alone at 10000 ppb): 4.8 points
- sweetness intensity ([4]; acid added alone at 0.001 ppb): 1.7 points
- sweetness intensity ([4]; acid added alone at 0.01 ppb): 2.2 points
- sweetness intensity ([4]; acid added alone at 0.1 ppb): 2.7 points
- sweetness intensity ([4]; acid added alone at 1 ppb): 3.3 points
- sweetness intensity ([4]; acid added alone at 10 ppb): 4.2 points
- sweetness intensity ([4]; acid added alone at 100 ppb): 4.9 points
- sweetness intensity ([4]; acid added alone at 1000 ppb): 5.5 points
- sweetness intensity ([4]; acid added alone at 10000 ppb): 6.1 points

SMILES: CCCCCCCC(=O)O [octanoic acid]
- sweetness intensity [1, 5]: 0.5 points
- sweetness intensity [1, 6]: 1.3 points
- sweetness intensity [1, 7]: 1.8 points
- sweetness intensity [1, 8]: 2.3 points
- sweetness intensity [1, 9]: 2.9 points
- sweetness intensity [1, 10]: 3.3 points
- sweetness intensity [1, 11]: 4.0 points
- sweetness intensity [1, 12]: 4.5 points
- sweetness intensity ([2]; acid added alone at 0.001 ppb): 0.3 points
- sweetness intensity ([2]; acid added alone at 0.01 ppb): 0.4 points
- sweetness intensity ([2]; acid added alone at 0.1 ppb): 0.9 points
- sweetness intensity ([2]; acid added alone at 1 ppb): 1.3 points
- sweetness intensity ([2]; acid added alone at 10 ppb): 2.0 points
- sweetness intensity ([2]; acid added alone at 100 ppb): 2.6 points
- sweetness intensity ([2]; acid added alone at 1000 ppb): 3.7 points
- sweetness intensity ([2]; acid added alone at 10000 ppb): 4.0 points
- concentration at which a sweetness-enhancing effect was confirmed [2]: ≥ 1000 ppb
- sweetness intensity ([3]; acid added alone at 0.001 ppb): 1.1 points
- sweetness intensity ([3]; acid added alone at 0.01 ppb): 1.8 points
- sweetness intensity ([3]; acid added alone at 0.1 ppb): 2.7 points
- sweetness intensity ([3]; acid added alone at 1 ppb): 3.3 points
- sweetness intensity ([3]; acid added alone at 10 ppb): 4.3 points
- sweetness intensity ([3]; acid added alone at 100 ppb): 4.3 points
- sweetness intensity ([3]; acid added alone at 1000 ppb): 4.4 points
- sweetness intensity ([3]; acid added alone at 10000 ppb): 4.3 points
- sweetness intensity ([4]; acid added alone at 0.001 ppb): 0.6 points
- sweetness intensity ([4]; acid added alone at 0.01 ppb): 1.4 points
- sweetness intensity ([4]; acid added alone at 0.1 ppb): 2.2 points
- sweetness intensity ([4]; acid added alone at 1 ppb): 2.9 points
- sweetness intensity ([4]; acid added alone at 10 ppb): 3.4 points
- sweetness intensity ([4]; acid added alone at 100 ppb): 3.9 points
- sweetness intensity ([4]; acid added alone at 1000 ppb): 4.3 points
- sweetness intensity ([4]; acid added alone at 10000 ppb): 4.6 points
- concentration at which a sweetness-enhancing effect was confirmed ([4]; added alone, 3.0 points or more): ≥ 10 ppb

Source: patent US20250302080A1, “SWEETNESS AND/OR FLAVOR ENHANCER” (AJINOMOTO CO., INC., priority 2022, published 2025)
